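At the GI50, growth is halved. At the TGI there is no net growth.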
How the values were obtained:
Assay in all cases: NCI tumour cell line growth inhibition, 384-well format
A498 renal = test system: A498 renal
SNB-75 CNS = test system: SNB-75 CNS
UACC-257 melanoma = test system: UACC-257 melanoma
SN12C renal = test system: SN12C renal
MDA-MB-435 melanoma = test system: MDA-MB-435 melanoma
M14 melanoma = test system: M14 melanoma
EKVX NSCLC = test system: EKVX NSCLC
SF-268 CNS = test system: SF-268 CNS
NCI-H226 lung = test system: NCI-H226 lung
SNB-19 CNS = test system: SNB-19 CNS
HCT-116 colon = test system: HCT-116 colon
OVCAR-3 ovarian = test system: OVCAR-3 ovarian
OVCAR-4 ovarian = test system: OVCAR-4 ovarian
SK-MEL-5 melanoma = test system: SK-MEL-5 melanoma
DU-145 prostate = test system: DU-145 prostate
KM12 colon = test system: KM12 colon
NCI-H322M lung = test system: NCI-H322M lung
ACHN renal = test system: ACHN renal
BT-549 breast = test system: BT-549 breast
NCI/ADR-RES ovarian = test system: NCI/ADR-RES ovarian
SK-MEL-28 melanoma = test system: SK-MEL-28 melanoma
HL-60(TB) leukemia = test system: HL-60(TB) leukemia
NCI-H460 NSCLC = test system: NCI-H460 NSCLC
RPMI-8226 leukemia = test system: RPMI-8226 leukemia
NCI-H522 lung = test system: NCI-H522 lung
MDA-MB-468 breast = test system: MDA-MB-468 breast
A549 NSCLC = test system: A549 NSCLC
NCI-H23 lung = test system: NCI-H23 lung
COLO 205 colon = test system: COLO 205 colon
HS 578T breast = test system: HS 578T breast
U251 glioblastoma = test system: U251 glioblastoma
SF-295 CNS = test system: SF-295 CNS
HCT-15 colon = test system: HCT-15 colon
CAKI-1 renal = test system: CAKI-1 renal
SR leukemia = test system: SR leukemia
IGROV1 ovarian = test system: IGROV1 ovarian
MOLT-4 leukemia = test system: MOLT-4 leukemia
SF-539 CNS = test system: SF-539 CNS
UACC-62 melanoma = test system: UACC-62 melanoma
HOP-62 NSCLC = test system: HOP-62 NSCLC
MCF7 breast = test system: MCF7 breast
HCC-2998 colon = test system: HCC-2998 colon
SK-OV-3 ovarian = test system: SK-OV-3 ovarian
MALME-3M melanoma = test system: MALME-3M melanoma
TK-10 renal = test system: TK-10 renal
MDA-MB-231 breast = test system: MDA-MB-231 breast

For `O=C(NC1CCNCC1)c1[nH]ncc1NC(=O)c1c(Cl)cccc1Cl`, the GI50 (A498 renal) was 304 nM, the TGI (A498 renal) was 879 nM and the GI50 (SNB-75 CNS) was 194 nM. For the same molecule, the TGI (SNB-75 CNS) was 356 nM, the GI50 (UACC-257 melanoma) was 246 nM and the TGI (UACC-257 melanoma) was 564 nM. It also gave a GI50 (SN12C renal) of 181 nM, a TGI (SN12C renal) of 395 nM and a GI50 (MDA-MB-435 melanoma) of 191 nM. It also gave a TGI (MDA-MB-435 melanoma) of 379 nM, a GI50 (M14 melanoma) of 257 nM and a TGI (M14 melanoma) of 619 nM. The GI50 (EKVX NSCLC) was 366 nM, the TGI (EKVX NSCLC) was 1830 nM and the GI50 (SF-268 CNS) was 186 nM. For the same molecule, the TGI (SF-268 CNS) was 478 nM, the GI50 (NCI-H226 lung) was 205 nM and the TGI (NCI-H226 lung) was 527 nM. The GI50 (SNB-19 CNS) was 326 nM, the TGI (SNB-19 CNS) was > 100 µM and the GI50 (HCT-116 colon) was 202 nM. For the same molecule, the TGI (HCT-116 colon) was > 100 µM, the GI50 (OVCAR-3 ovarian) was 163 nM and the TGI (OVCAR-3 ovarian) was 347 nM. It also gave a GI50 (OVCAR-4 ovarian) of 262 nM, a TGI (OVCAR-4 ovarian) of 560 nM and a GI50 (SK-MEL-5 melanoma) of 183 nM. It also gave a TGI (SK-MEL-5 melanoma) of 337 nM, a GI50 (DU-145 prostate) of 260 nM and a TGI (DU-145 prostate) of 692 nM. For the same molecule, the GI50 (KM12 colon) was 176 nM, the TGI (KM12 colon) was > 100 µM and the GI50 (NCI-H322M lung) was 197 nM. It also gave a TGI (NCI-H322M lung) of 477 nM, a GI50 (ACHN renal) of 2360 nM and a TGI (ACHN renal) of 34.9 µM. For the same molecule, the GI50 (BT-549 breast) was 183 nM, the TGI (BT-549 breast) was 377 nM and the GI50 (NCI/ADR-RES ovarian) was > 100 µM. For the same molecule, the TGI (NCI/ADR-RES ovarian) was > 100 µM, the GI50 (SK-MEL-28 melanoma) was 187 nM and the TGI (SK-MEL-28 melanoma) was 394 nM. The GI50 (HL-60(TB) leukemia) was 105 nM, the TGI (HL-60(TB) leukemia) was 224 nM and the GI50 (NCI-H460 NSCLC) was 168 nM. The TGI (NCI-H460 NSCLC) was 379 nM, the GI50 (RPMI-8226 leukemia) was 200 nM and the TGI (RPMI-8226 leukemia) was 344 nM. The GI50 (NCI-H522 lung) was 202 nM, the TGI (NCI-H522 lung) was 384 nM and the GI50 (MDA-MB-468 breast) was 157 nM. The TGI (MDA-MB-468 breast) was 296 nM, the GI50 (A549 NSCLC) was 388 nM and the TGI (A549 NSCLC) was > 100 µM. The GI50 (NCI-H23 lung) was 180 nM, the TGI (NCI-H23 lung) was 345 nM and the GI50 (COLO 205 colon) was 126 nM. The TGI (COLO 205 colon) was 391 nM, the GI50 (HS 578T breast) was 209 nM and the TGI (HS 578T breast) was 477 nM. For the same molecule, the GI50 (U251 glioblastoma) was 268 nM, the TGI (U251 glioblastoma) was 703 nM and the GI50 (SF-295 CNS) was 352 nM. For the same molecule, the TGI (SF-295 CNS) was > 100 µM, the GI50 (HCT-15 colon) was 3.52 µM and the TGI (HCT-15 colon) was 43.5 µM. The GI50 (CAKI-1 renal) was 371 nM, the TGI (CAKI-1 renal) was > 100 µM and the GI50 (SR leukemia) was 18.5 nM. It also gave a TGI (SR leukemia) of 37.3 nM, a GI50 (IGROV1 ovarian) of 286 nM and a TGI (IGROV1 ovarian) of 809 nM. The GI50 (MOLT-4 leukemia) was 200 nM, the TGI (MOLT-4 leukemia) was 344 nM and the GI50 (SF-539 CNS) was 212 nM. For the same molecule, the TGI (SF-539 CNS) was 454 nM, the GI50 (UACC-62 melanoma) was 169 nM and the TGI (UACC-62 melanoma) was 369 nM. It also gave a GI50 (HOP-62 NSCLC) of 212 nM, a TGI (HOP-62 NSCLC) of 500 nM and a GI50 (MCF7 breast) of 59 nM. The TGI (MCF7 breast) was > 100 µM, the GI50 (HCC-2998 colon) was 151 nM and the TGI (HCC-2998 colon) was 360 nM. For the same molecule, the GI50 (SK-OV-3 ovarian) was 362 nM, the TGI (SK-OV-3 ovarian) was > 100 µM and the GI50 (MALME-3M melanoma) was 182 nM. The TGI (MALME-3M melanoma) was 348 nM, the GI50 (TK-10 renal) was 528 nM and the TGI (TK-10 renal) was 9.38 µM. For the same molecule, the GI50 (MDA-MB-231 breast) was 256 nM and the TGI (MDA-MB-231 breast) was > 100 µM.

— PubChem BioAssay (NCI)
